Activity calls are given as the source filed them.
Assays:
[1] = molecular target: Eukaryotic translation initiation factor 4E (Mus musculus, UniProt P63073); test: eIF4E–eIF4G protein interaction inhibitors, dose response, biochemical, TR-FRET (AID 855); assay type: functional;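 further: potency for disrupting eIF4E binding to eIF4GI seen as loss of FRET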
Coagulation factor XII = molecular target: T1, Coagulation factor XII (Homo sapiens, UniProt P00748); assay type: functional;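 further: activated factor XIIa alpha cleaving a fluorogenic AMC peptide substrate; inhibitor potency from loss of enzyme activity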
T1 sequence (P00748 whole entry): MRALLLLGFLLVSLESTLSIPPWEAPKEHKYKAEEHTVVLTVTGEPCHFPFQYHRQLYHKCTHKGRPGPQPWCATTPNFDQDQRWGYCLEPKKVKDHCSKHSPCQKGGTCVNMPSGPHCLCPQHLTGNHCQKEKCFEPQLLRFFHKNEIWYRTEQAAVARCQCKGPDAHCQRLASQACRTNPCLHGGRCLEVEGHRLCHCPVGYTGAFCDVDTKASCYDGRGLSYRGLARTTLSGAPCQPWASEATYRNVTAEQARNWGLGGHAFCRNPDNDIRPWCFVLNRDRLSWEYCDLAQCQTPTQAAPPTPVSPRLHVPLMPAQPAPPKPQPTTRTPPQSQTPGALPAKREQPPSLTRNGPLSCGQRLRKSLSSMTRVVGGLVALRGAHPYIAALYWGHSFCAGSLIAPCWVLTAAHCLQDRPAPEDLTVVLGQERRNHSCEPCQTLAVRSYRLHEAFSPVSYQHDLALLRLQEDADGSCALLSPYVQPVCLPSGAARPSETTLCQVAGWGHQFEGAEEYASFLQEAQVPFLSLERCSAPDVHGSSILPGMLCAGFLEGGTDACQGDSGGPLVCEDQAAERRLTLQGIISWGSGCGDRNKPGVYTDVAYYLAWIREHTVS

[2] = molecular target: T2, Tyrosine-protein phosphatase non-receptor type 7 (Homo sapiens, UniProt P35236); test: SAR analysis of chemical inhibitors of HePTP using a Fluorescent assay - Set 2. [Related pubchem assays (depositor defined):AID1059, AID1077, AID1661, AID2085, AID521]; assay type: functional
T2 sequence (P35236 whole entry): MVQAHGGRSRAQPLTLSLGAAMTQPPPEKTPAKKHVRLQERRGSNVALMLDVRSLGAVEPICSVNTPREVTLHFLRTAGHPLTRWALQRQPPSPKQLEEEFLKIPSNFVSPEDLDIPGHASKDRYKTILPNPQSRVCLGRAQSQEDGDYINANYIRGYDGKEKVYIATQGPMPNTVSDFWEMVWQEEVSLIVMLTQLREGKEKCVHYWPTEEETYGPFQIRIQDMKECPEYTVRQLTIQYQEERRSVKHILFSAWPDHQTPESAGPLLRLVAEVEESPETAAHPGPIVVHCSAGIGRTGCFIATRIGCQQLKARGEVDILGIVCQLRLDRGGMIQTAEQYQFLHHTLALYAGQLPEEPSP

[3] = molecular target: Dual specificity protein phosphatase 3 (Homo sapiens, UniProt P51452); test: SAR VHR1 Fluorescent Assay for In Vitro dose response studies Set 2. [Related pubchem assays (depositor defined):AID1654, AID1661, AID1878]; assay type: functional
Dual specificity protein phosphatase 3, sequence (P51452 whole entry, the tested form may be a part): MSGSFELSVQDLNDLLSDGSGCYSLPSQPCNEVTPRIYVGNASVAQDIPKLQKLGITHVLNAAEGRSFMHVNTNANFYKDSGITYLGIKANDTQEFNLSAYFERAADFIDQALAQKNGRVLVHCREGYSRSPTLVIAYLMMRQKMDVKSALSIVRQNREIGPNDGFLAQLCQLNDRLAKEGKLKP

[4] = molecular target: T3, RNA-binding protein pos-1 (Caenorhabditis elegans, UniProt G5EF15); test: inhibitors of POS-1/mex-3 RNA binding, dose response, biochemical, fluorescence polarization (AID 1964);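 further: purified POS-1 fused to maltose binding protein made in E. coli; potency of compounds blocking POS-1 binding to fluorescent RNA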
T3 sequence (G5EF15 whole entry): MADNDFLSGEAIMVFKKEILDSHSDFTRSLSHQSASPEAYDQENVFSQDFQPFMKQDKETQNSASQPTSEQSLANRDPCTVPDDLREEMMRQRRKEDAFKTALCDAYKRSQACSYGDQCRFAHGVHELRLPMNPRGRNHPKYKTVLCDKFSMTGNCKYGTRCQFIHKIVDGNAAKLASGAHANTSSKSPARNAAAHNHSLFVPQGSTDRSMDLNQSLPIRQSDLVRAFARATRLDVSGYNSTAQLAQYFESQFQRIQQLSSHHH

[5] = molecular target: T4, Zinc finger protein mex-5 (Caenorhabditis elegans, UniProt Q9XUB2); test: MEX-5/TCR-2 RNA interaction inhibitors, dose response, biochemical, C. elegans, fluorescence polarization (AID 1960)
T4 sequence (Q9XUB2 whole entry): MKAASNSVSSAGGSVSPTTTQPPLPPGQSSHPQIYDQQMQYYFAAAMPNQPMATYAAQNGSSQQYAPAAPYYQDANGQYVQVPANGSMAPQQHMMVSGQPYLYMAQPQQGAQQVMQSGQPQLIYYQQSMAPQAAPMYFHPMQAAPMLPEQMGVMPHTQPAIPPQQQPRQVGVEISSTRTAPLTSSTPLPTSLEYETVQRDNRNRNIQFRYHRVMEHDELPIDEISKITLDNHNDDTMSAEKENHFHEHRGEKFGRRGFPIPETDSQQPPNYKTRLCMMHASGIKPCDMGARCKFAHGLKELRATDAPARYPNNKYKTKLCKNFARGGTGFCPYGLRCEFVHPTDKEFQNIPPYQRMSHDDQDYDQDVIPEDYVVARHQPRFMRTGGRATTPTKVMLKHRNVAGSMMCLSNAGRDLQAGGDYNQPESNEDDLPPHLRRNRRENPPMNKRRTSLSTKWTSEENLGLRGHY

Large T antigen = Large T antigen (Simian virus 40, UniProt P03070); assay type: functional, Betapolyomavirus macacae;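 further: Confirmatory-stage PubChem screen for compounds that inhibit SV40 T antigen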
Large T antigen, sequence (P03070 whole entry): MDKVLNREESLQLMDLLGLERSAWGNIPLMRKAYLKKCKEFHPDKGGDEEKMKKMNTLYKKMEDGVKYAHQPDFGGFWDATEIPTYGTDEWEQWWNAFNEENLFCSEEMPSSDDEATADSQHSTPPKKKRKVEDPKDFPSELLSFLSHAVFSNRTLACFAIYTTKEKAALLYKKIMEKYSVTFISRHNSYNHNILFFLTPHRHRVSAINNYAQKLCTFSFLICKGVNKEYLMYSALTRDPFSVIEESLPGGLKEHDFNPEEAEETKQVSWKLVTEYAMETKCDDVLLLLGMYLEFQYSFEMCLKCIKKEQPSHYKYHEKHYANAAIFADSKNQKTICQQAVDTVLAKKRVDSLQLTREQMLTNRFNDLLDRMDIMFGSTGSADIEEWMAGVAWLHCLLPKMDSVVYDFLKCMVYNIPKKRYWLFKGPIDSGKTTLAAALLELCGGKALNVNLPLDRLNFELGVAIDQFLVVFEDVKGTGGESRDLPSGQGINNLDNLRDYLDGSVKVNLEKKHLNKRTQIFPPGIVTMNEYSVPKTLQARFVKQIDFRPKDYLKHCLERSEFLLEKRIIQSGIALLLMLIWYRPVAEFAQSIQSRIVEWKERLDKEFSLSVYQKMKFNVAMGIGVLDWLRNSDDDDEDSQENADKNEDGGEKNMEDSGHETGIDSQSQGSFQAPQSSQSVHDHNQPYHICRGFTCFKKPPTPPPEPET

HeLa = test: HeLa cell cytotoxicity, dose response, cytotoxicity control, 24 h, cherry-picked samples (AID 504726); assay type: functional, cell-based; settings: Homo sapiens;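 further: potency for cytotoxicity as loss of luminescence signal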
ORF 73 = ORF 73 (Human herpesvirus 8, UniProt O40947); test: inhibitors of C-LANA binding to LBS DNA, dose response, biochemical, fluorescence polarization, cherry-picked samples (AID 504725); design: species or system Human gammaherpesvirus 8;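 further: fluorescence polarization of a labeled DNA duplex reporting LANA DNA binding; potency is for inhibitors that block LANA binding to the DNA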
Keap1/Nrf2 = Keap1/Nrf2 (Homo sapiens, UniProt Q14145); test: Keap1-Nrf2 protein-protein interaction inhibitors, dose response, biochemical, fluorescence polarization, cherry-picked samples (AID 588683)
Keap1/Nrf2, sequence (Q16236 whole entry): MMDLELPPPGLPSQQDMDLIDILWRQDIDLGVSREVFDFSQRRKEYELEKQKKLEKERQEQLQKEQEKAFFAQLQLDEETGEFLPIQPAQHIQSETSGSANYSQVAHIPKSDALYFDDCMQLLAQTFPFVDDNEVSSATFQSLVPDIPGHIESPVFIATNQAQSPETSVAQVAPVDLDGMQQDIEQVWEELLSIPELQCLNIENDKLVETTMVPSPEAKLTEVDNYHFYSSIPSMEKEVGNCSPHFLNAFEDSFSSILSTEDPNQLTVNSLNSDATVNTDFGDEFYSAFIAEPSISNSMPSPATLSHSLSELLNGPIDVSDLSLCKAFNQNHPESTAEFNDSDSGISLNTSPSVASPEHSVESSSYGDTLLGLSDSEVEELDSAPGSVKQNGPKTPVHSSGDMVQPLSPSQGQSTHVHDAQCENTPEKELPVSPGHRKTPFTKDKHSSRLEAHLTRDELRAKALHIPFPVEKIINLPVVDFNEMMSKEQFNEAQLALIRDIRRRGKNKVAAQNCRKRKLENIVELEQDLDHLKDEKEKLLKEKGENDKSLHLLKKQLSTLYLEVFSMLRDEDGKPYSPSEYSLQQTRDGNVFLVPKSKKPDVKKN
Keap1/Nrf2, sequence (Q14145 whole entry): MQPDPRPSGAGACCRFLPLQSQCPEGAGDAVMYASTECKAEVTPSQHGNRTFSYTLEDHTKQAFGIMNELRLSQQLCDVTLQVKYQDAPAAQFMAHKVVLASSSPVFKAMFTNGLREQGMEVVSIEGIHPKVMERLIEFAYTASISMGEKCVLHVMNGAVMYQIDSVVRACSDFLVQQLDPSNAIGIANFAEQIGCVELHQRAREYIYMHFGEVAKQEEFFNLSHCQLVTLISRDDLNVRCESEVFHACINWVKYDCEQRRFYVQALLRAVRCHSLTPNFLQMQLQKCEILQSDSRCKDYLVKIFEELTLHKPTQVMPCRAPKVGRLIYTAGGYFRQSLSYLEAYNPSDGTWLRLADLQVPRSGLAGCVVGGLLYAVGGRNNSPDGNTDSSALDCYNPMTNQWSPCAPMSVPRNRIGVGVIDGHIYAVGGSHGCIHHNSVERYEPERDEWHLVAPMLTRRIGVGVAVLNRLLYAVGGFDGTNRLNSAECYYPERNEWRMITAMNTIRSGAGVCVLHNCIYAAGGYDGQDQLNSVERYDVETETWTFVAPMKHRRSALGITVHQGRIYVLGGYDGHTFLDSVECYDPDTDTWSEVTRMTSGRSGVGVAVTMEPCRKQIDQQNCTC

[6] = molecular target: T5, Long-chain-fatty-acid--AMP ligase FadD28 (Mycobacterium tuberculosis, UniProt P9WQ59); test: Fluorescence polarization aasay to screen for inhibitors that compete for the binding of FadD28 to a bisubstrate Measured in Biochemical System Using Plate Reader - 2147-01_Inhibitor_Dose_CherryPick_Activity.; assay type: functional, Mycobacterium tuberculosis H37Rv
T5 sequence (P9WQ59 whole entry): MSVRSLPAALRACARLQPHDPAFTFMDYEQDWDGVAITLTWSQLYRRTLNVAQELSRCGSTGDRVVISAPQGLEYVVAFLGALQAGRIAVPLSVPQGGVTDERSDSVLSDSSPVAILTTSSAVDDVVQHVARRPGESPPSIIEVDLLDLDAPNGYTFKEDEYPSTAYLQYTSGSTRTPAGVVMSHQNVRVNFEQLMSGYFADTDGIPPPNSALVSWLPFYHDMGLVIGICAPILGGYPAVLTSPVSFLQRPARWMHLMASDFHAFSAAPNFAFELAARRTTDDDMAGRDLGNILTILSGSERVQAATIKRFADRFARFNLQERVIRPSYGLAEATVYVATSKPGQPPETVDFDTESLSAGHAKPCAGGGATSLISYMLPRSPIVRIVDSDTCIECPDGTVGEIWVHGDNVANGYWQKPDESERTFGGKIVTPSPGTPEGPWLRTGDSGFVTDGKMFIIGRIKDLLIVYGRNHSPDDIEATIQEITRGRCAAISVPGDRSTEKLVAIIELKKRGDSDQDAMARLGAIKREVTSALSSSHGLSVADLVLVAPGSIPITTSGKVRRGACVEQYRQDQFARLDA

[7] = AlphaScreen signal interference compounds, dose response, artefact control for ARNT-TACC3 interaction inhibitor project, biochemical, luminescence, cherry-pick (AID 651705); assay type: functional;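 further: AlphaScreen bead proximity signal that flags compounds interfering with the detection technology; potency reflects signal decrease which marks the compound as an assay artifact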
Caspase-6 = molecular target: T6, Caspase-6 (Homo sapiens, UniProt P55212); test: human caspase-6 inhibitors, dose response, biochemical, VEID-R110 fluorescence, cherry-pick (AID 720632)
T6 sequence (P55212 whole entry): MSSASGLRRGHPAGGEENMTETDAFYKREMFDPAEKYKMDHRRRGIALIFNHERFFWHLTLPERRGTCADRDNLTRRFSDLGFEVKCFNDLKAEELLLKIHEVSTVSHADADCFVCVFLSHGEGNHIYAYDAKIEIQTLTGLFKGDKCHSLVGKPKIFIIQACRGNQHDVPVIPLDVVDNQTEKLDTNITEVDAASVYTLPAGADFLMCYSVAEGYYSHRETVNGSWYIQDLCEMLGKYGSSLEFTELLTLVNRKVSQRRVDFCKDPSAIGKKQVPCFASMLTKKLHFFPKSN

[8] = molecular target: T7, Heat shock 70 kDa protein 1A (Homo sapiens, UniProt P0DMV8); test: Hsp70 inhibitors, biochemical, TR-FRET (AID 786)
T7 sequence (P0DMV8 whole entry): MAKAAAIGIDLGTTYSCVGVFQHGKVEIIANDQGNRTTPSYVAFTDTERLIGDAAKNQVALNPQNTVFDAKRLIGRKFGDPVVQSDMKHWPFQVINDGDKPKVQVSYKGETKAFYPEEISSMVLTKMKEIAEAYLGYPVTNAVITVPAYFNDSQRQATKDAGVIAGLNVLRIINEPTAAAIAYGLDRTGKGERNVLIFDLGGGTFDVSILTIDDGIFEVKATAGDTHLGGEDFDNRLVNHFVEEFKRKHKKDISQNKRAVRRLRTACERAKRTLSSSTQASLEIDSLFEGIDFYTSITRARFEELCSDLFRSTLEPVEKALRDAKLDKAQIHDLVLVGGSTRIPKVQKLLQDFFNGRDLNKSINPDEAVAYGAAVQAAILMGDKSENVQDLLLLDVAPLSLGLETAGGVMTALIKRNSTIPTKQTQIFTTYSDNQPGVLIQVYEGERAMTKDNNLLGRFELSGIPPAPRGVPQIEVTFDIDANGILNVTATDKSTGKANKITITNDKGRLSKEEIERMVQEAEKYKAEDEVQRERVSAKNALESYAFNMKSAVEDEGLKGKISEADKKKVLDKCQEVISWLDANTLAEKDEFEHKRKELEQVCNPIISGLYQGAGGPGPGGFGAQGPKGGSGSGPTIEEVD

[9] = Luminescence Cell-Based Dose Confirmation HTS to Identify Activators of 5'UTR Stem-Loop Driven Alpha-Synuclein mRNA Translation in H4 Neuroglioblastoma Cells. [Related pubchem assays: 1829 (Project Summary), 1814 (Primary HTS)]; assay type: functional
[10] = Luminescence Cell-Based Dose Response HTS to Identify Activators of Luciferase Translation or Activity in H4 […] Cells. [Related pubchem assays: 1829 (Project Summary), 1814 (Primary HTS)]; assay type: functional
[11] = molecular target: T7, Heat shock 70 kDa protein 1A; test: Hsp70 inhibitors, probe displacement, primary screen, biochemical, fluorescence polarization (AID 583)
H4 = test: Luminescence Cell-Based Dose Response HTS to Identify Activators of 5'UTR Stem-Loop Driven Prion Protein mRNA Translation in H4 Neuroglioblastoma Cells. [Related pubchem assays: 1829 (Project Summary), 1814 (Primary HTS)]; assay type: functional; settings: Homo sapiens
[12] = molecular target: Induced myeloid leukemia cell differentiation protein Mcl-1 (Homo sapiens, UniProt Q07820); assay type: functional
Troponin, cardiac muscle = Troponin, cardiac muscle (Homo sapiens, UniProt P19429+P45379+P63316); test: inhibitors of cardiac thin filament calcium sensitivity, dose response, biochemical, fluorescence, cardiac regulated thin filaments, triplicate IC50 (AID 504742); assay type: protein-complex assay
[13] = molecular target: T2, Tyrosine-protein phosphatase non-receptor type 7; test: redox-dependent HePTP inhibition, mechanism study, biochemical, fluorescence (AID 2068); assay type: functional
[14] = molecular target: Glutathione-S-transferase (Schistosoma japonicum, UniProt Q26513); test: biotin-GST/anti-GST TR-FRET signal inhibitors, dose response, artefact control for Vif-APOBEC3G degradation inhibitor project, biochemical (AID 1117362); assay type: functional
Glutathione-S-transferase, sequence (Q26513 whole entry): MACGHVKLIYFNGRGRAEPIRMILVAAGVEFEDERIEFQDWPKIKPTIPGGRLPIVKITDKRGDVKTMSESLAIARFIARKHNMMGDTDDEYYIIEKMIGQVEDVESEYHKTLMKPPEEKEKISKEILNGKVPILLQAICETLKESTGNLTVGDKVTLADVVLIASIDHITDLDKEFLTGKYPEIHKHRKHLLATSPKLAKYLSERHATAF

[15] = molecular target: Eukaryotic translation initiation factor 4H (Homo sapiens, UniProt Q15056); test: eIF4H inhibition in translation initiation, SAR follow-up (AID 435011); assay type: functional
[16] = molecular target: Polyadenylate-binding protein 1 (Homo sapiens, UniProt P11940); test: PABP inhibition in translation initiation, SAR follow-up (AID 435018); assay type: functional
Polyadenylate-binding protein 1, sequence (P11940 whole entry): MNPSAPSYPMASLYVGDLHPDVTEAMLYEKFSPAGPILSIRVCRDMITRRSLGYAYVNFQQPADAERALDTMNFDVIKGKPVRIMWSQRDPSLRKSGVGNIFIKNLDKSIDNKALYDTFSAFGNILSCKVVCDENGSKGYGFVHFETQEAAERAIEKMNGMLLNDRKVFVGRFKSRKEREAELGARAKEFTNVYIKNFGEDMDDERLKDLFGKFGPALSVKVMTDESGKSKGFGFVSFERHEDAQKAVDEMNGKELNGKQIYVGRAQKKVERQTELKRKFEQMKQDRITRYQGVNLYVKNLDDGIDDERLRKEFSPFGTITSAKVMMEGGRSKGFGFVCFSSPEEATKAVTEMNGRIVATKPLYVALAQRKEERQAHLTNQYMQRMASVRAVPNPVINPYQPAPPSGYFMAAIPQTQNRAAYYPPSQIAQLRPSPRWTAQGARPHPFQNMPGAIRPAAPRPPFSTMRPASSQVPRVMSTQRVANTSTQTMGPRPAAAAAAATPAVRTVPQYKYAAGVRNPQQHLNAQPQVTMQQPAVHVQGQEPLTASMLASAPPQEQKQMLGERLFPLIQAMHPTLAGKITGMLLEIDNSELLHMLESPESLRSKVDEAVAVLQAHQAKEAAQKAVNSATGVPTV

[17] = microbe, parasite or virus in culture; assay type: functional; settings: Mycobacterium tuberculosis
[18] = Luminescence Cell-Based Dose Retest to Confirm Inhibitors of Cancer Stem Cells. [Related pubchem assays (depositor defined):AID2717, AID2721]; assay type: functional; settings: Homo sapiens
Beta-galactosidase = Beta-galactosidase (Escherichia coli, UniProt Q8VNN2); test: beta-galactosidase enzyme inhibitors and activators, dose response, artefact control for CCR6 antagonist project, biochemical, E. coli enzyme, set 3 (AID 504712); assay type: functional
[19] = cytotoxicity in NIH/3T3 mouse fibroblasts, dose response, cytotoxicity control, cell-based, mouse embryonic fibroblasts, dry powder, set 2 (AID 493247); assay type: functional; settings: Fibroblast
Trypanosoma cruzi = test: growth inhibition of intracellular Trypanosoma cruzi, dose response, cell-based, plate reader, dry powder, set 3 (AID 493197); assay type: functional
[20] = molecular target: Potassium voltage-gated channel subfamily KQT member 2 (Rattus norvegicus, UniProt O88943); test: retigabine-insensitive KCNQ2 potentiators, concentration-response, dose response, cell-based, retigabine-insensitive compounds (AID 2654); assay type: functional
Potassium voltage-gated channel subfamily KQT member 2, sequence (O88943 whole entry): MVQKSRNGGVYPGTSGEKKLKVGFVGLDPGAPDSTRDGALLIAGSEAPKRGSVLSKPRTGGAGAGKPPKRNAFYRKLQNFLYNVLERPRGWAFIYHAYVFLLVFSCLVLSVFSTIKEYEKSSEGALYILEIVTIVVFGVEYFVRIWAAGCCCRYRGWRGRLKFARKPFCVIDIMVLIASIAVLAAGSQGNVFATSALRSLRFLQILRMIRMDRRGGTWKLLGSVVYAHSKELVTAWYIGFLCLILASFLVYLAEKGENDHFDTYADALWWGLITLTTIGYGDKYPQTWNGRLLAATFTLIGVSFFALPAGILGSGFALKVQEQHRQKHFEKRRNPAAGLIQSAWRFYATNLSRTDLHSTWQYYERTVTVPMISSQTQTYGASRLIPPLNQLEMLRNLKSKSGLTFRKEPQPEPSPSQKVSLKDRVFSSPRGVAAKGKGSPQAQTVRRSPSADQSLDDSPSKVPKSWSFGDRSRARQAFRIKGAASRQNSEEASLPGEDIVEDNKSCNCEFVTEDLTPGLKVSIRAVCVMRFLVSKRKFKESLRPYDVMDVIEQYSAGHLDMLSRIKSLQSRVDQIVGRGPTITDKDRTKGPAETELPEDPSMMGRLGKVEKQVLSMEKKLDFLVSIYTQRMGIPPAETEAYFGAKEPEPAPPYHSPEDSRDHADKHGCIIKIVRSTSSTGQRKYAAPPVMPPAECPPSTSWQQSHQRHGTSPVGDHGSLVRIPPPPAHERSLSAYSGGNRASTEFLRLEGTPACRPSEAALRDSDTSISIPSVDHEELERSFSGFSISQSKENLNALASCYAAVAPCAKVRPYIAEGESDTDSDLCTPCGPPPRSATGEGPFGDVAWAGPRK

Eukaryotic translation initiation factor 4E, sequence (P63073 whole entry): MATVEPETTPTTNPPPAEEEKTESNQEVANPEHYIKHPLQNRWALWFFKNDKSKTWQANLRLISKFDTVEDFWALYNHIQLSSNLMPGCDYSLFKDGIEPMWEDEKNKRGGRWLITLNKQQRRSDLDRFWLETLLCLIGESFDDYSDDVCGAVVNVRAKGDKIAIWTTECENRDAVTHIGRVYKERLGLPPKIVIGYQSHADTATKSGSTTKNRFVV

## Nc1c(C(=O)NCc2cccnc2)sc(=S)n1-c1ccccc1
[1]
  IC50: > 64 µM (inactive)
Coagulation factor XII
  IC50: > 50 µM (inactive)
[2]
  IC50: > 100 µM (inactive)
[3]
  IC50: 78 µM (active)

## NS(=O)(=O)c1ccc(N=Nc2cnc(O)c(O)c2)cc1
[4]
  EC50: 5.41 µM (active)
[5]
  EC50: 0.421 µM (active)
Large T antigen
  IC50: 27.5 µM (active)
HeLa
  AC50: 43.8 µM (active)
ORF 73
  AC50: 19.5 µM (active)
Keap1/Nrf2
  AC50: 17.1 µM (active)
[6]
  AC50: 22.8 µM (active)
[7]
  AC50: 135 µM (active)
Caspase-6
  AC50: 3.44 µM (active)

## O=C(Nc1ccc2nc(-c3ccco3)c(-c3ccco3)nc2c1)NC1CC1
[8]
  IC50: > 100 µM (not active)
[9]
  EC50: > 120 µM (not active)
[10]
  EC50: 13.2 µM (active)
[11]
  IC50: 73.3 µM (active)
H4
  EC50: > 120 µM (not active)
Large T antigen
  IC50: 39.6 µM (active)
[12]
  IC50: 2.92 µM (active)
Troponin, cardiac muscle
  IC50: 47.5 µM (inactive)
[13]
  IC50: 1.34 µM (active)
[1]
  IC50: 33.1 µM (inactive)
[14]
  IC50: 75.5 µM (active)

## COc1ccc(C(=O)N/N=C\c2ccc(OCC(=O)Nc3ccc(C)c(C)c3)c(OC)c2)cc1
[15]
  IC50: > 100 µM (inactive)
[16]
  IC50: > 100 µM (inactive)

## CNC(CC(=O)c1ccc([N+](=O)[O-])cc1)C(Cl)(Cl)Cl (configuration not stated)
[17]
  CC50: > 40 µM (active)
[18]
  AC50: 2.3 µM (active)
Beta-galactosidase
  IC50: > 66.6 µM (inactive)

## COc1ccc(CCN(C)C(=O)C2CCCN(Cc3ccccc3Cl)C2)cc1OC (configuration not stated)
[19]
  AC50: 46.8 µM (active)
Trypanosoma cruzi
  AC50: 13.7 µM (active)

## O=C(NCc1ccc(Cl)cc1Cl)Nc1ccc(F)nc1
[20]
  EC50: 6.31 µM (active)
